In patent publication US7118895B2, “Process for producing aglycon by using diglycosidase and flavor-improved food containing the aglycon and converting agent to be used in the process” (Amano Enzyme Inc., priority 2000, dated 2006):

Experiments:
Crude diglycosidase = test: Examination of temperature in the conversion into isoflavone aglycons by diglycosidase using soybean materials; type: biochemical, Penicillium multicolor IAM7153; set-up: Decomposition efficiency of glycitin family in roasted soy flour / Decomposition efficiency of daidzin family in roasted soy flour / Decomposition efficiency of genistin family in soymilk / Decomposition efficiency of daidzin family in soymilk / Decomposition efficiency of glycitin family in defatted soybean / Decomposition efficiency of daidzin family in defatted soybean: concentration or dose not given beside the values
Procedure, shortened: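 Soybean materials (50 mg) suspended in 20 mM acetate buffer pH 4.0 reacted with crude diglycosidase diluted to 1.88 AU/mL at 80, 65, 55, 45, 37 or 30° C. Reactions stopped with ethanol at 0, 1, 3 and 6 h; isoflavone glycosides and aglycons in supernatant detected by HPLC.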

[1] = system: Diglycosidase derived from P. multicolor; test: Reactivity toward various isoflavone glycosides (HPLC); type: biochemical, Penicillium multicolor; set-up: glucoside / aglycon: unit not given here; conditions: 55 °C, pH 4.0
Procedure, shortened: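 Enzymes at 0.75 AU/mL in pH 4.0 acetate buffer were reacted at 55° C with individual isoflavone glycosides (substrate stock 2 mM in methanol) in 20 mM acetate pH 4.0. Aglycone release followed at 0, 1, 3 and 6 h: ethanol-quenched, ODS HPLC with UV 260 nm, quantified against calibration curves.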

[2] = 30° C., heat treatment of enzyme no, reaction time 0 h
[3] = 30° C., heat treatment of enzyme no, reaction time 1 h
[4] = 30° C., heat treatment of enzyme no, reaction time 3 h
[5] = 30° C., heat treatment of enzyme no, reaction time 6 h
[6] = 30° C., heat treatment of enzyme yes, reaction time 6 h
[7] = 30 °C, heat treatment of enzyme: no, 0 h
[8] = 30 °C, heat treatment of enzyme: no, 1 h
[9] = 30 °C, heat treatment of enzyme: no, 3 h
[10] = 30 °C, heat treatment of enzyme: no, 6 h
[11] = 30 °C, heat treatment of enzyme: yes, 6 h
[12] = 45° C., heat treatment of enzyme no, reaction time 0 h
[13] = 45° C., heat treatment of enzyme no, reaction time 1 h
[14] = 45° C., heat treatment of enzyme no, reaction time 3 h
[15] = 45° C., heat treatment of enzyme no, reaction time 6 h
[16] = 45° C., heat treatment of enzyme yes, reaction time 6 h
[17] = 45 °C, heat treatment of enzyme: no, 0 h
[18] = 45 °C, heat treatment of enzyme: no, 1 h
[19] = 45 °C, heat treatment of enzyme: no, 3 h
[20] = 45 °C, heat treatment of enzyme: no, 6 h
[21] = 45 °C, heat treatment of enzyme: yes, 6 h
[22] = 55° C., heat treatment of enzyme no, reaction time 0 h
[23] = 55° C., heat treatment of enzyme no, reaction time 1 h
[24] = 55° C., heat treatment of enzyme no, reaction time 3 h
[25] = 55° C., heat treatment of enzyme no, reaction time 6 h
[26] = 55° C., heat treatment of enzyme yes, reaction time 6 h
[27] = 55 °C, heat treatment of enzyme: no, 0 h
[28] = 55 °C, heat treatment of enzyme: no, 1 h
[29] = 55 °C, heat treatment of enzyme: no, 3 h
[30] = 55 °C, heat treatment of enzyme: no, 6 h
[31] = 55 °C, heat treatment of enzyme: yes, 6 h
[32] = 65° C., heat treatment of enzyme no, reaction time 0 h
[33] = 65° C., heat treatment of enzyme no, reaction time 1 h
[34] = 65° C., heat treatment of enzyme no, reaction time 3 h
[35] = 65° C., heat treatment of enzyme no, reaction time 6 h
[36] = 65° C., heat treatment of enzyme yes, reaction time 6 h
[37] = 65 °C, heat treatment of enzyme: no, 0 h
[38] = 65 °C, heat treatment of enzyme: no, 1 h
[39] = 65 °C, heat treatment of enzyme: no, 3 h
[40] = 65 °C, heat treatment of enzyme: no, 6 h
[41] = 65 °C, heat treatment of enzyme: yes, 6 h
[42] = 80° C., heat treatment of enzyme no, reaction time 0 h
[43] = 80° C., heat treatment of enzyme no, reaction time 1 h
[44] = 80° C., heat treatment of enzyme no, reaction time 3 h
[45] = 80° C., heat treatment of enzyme no, reaction time 6 h
[46] = 80° C., heat treatment of enzyme yes, reaction time 6 h
[47] = 80 °C, heat treatment of enzyme: no, 0 h
[48] = 80 °C, heat treatment of enzyme: no, 1 h
[49] = 80 °C, heat treatment of enzyme: no, 3 h
[50] = 80 °C, heat treatment of enzyme: no, 6 h
[51] = 80 °C, heat treatment of enzyme: yes, 6 h

Decomposition efficiency of genistin family in concentrated soybean protein (Crude diglycosidase; [2]): not detected
Decomposition efficiency of genistin family in defatted soybean (Crude diglycosidase; [2]): 47.0%
Decomposition efficiency of genistin family in concentrated soybean protein (Crude diglycosidase; [3]): not detected
Decomposition efficiency of genistin family in defatted soybean (Crude diglycosidase; [3]): 51.3%
Decomposition efficiency of genistin family in concentrated soybean protein (Crude diglycosidase; [4]): not detected
Decomposition efficiency of genistin family in defatted soybean (Crude diglycosidase; [4]): 49.1%
Decomposition efficiency of genistin family in concentrated soybean protein (Crude diglycosidase; [5]): not detected
Decomposition efficiency of genistin family in defatted soybean (Crude diglycosidase; [5]): 45.6%
Decomposition efficiency of genistin family in concentrated soybean protein (Crude diglycosidase; [6]): not detected
Decomposition efficiency of genistin family in defatted soybean (Crude diglycosidase; [6]): 49.5%
Decomposition efficiency of genistin family in roasted soy flour (Crude diglycosidase; [7]): not detected
Decomposition efficiency of genistin family in soymilk (Crude diglycosidase; [7]): 58.5%
Decomposition efficiency of genistin family in roasted soy flour (Crude diglycosidase; [8]): not detected
Decomposition efficiency of genistin family in soymilk (Crude diglycosidase; [8]): 56.5%
Decomposition efficiency of genistin family in roasted soy flour (Crude diglycosidase; [9]): not detected
Decomposition efficiency of genistin family in soymilk (Crude diglycosidase; [9]): 47.9%
Decomposition efficiency of genistin family in roasted soy flour (Crude diglycosidase; [10]): not detected
Decomposition efficiency of genistin family in soymilk (Crude diglycosidase; [10]): 36.1%
Decomposition efficiency of genistin family in roasted soy flour (Crude diglycosidase; [11]): not detected
Decomposition efficiency of genistin family in soymilk (Crude diglycosidase; [11]): 57.7%
Decomposition efficiency of genistin family in concentrated soybean protein (Crude diglycosidase; [12]): not detected
Decomposition efficiency of genistin family in defatted soybean (Crude diglycosidase; [12]): 47.0%
Decomposition efficiency of genistin family in concentrated soybean protein (Crude diglycosidase; [13]): not detected
Decomposition efficiency of genistin family in defatted soybean (Crude diglycosidase; [13]): 49.0%
Decomposition efficiency of genistin family in concentrated soybean protein (Crude diglycosidase; [14]): not detected
Decomposition efficiency of genistin family in defatted soybean (Crude diglycosidase; [14]): 46.8%
Decomposition efficiency of genistin family in concentrated soybean protein (Crude diglycosidase; [15]): not detected
Decomposition efficiency of genistin family in defatted soybean (Crude diglycosidase; [15]): 44.2%
Decomposition efficiency of genistin family in concentrated soybean protein (Crude diglycosidase; [16]): not detected
Decomposition efficiency of genistin family in defatted soybean (Crude diglycosidase; [16]): 48.1%
Decomposition efficiency of genistin family in roasted soy flour (Crude diglycosidase; [17]): not detected
Decomposition efficiency of genistin family in soymilk (Crude diglycosidase; [17]): 57.8%
Decomposition efficiency of genistin family in roasted soy flour (Crude diglycosidase; [18]): not detected
Decomposition efficiency of genistin family in soymilk (Crude diglycosidase; [18]): 49.4%
Decomposition efficiency of genistin family in roasted soy flour (Crude diglycosidase; [19]): not detected
Decomposition efficiency of genistin family in soymilk (Crude diglycosidase; [19]): 34.7%
Decomposition efficiency of genistin family in roasted soy flour (Crude diglycosidase; [20]): not detected
Decomposition efficiency of genistin family in soymilk (Crude diglycosidase; [20]): 20.7%
Decomposition efficiency of genistin family in roasted soy flour (Crude diglycosidase; [21]): not detected
Decomposition efficiency of genistin family in soymilk (Crude diglycosidase; [21]): 57.2%
Decomposition efficiency of genistin family in concentrated soybean protein (Crude diglycosidase; [22]): not detected
Decomposition efficiency of genistin family in defatted soybean (Crude diglycosidase; [22]): 47.0%
Decomposition efficiency of genistin family in concentrated soybean protein (Crude diglycosidase; [23]): not detected
Decomposition efficiency of genistin family in defatted soybean (Crude diglycosidase; [23]): 48.8%
Decomposition efficiency of genistin family in concentrated soybean protein (Crude diglycosidase; [24]): not detected
Decomposition efficiency of genistin family in defatted soybean (Crude diglycosidase; [24]): 46.1%
Decomposition efficiency of genistin family in concentrated soybean protein (Crude diglycosidase; [25]): not detected
Decomposition efficiency of genistin family in defatted soybean (Crude diglycosidase; [25]): 43.4%
Decomposition efficiency of genistin family in concentrated soybean protein (Crude diglycosidase; [26]): not detected
Decomposition efficiency of genistin family in defatted soybean (Crude diglycosidase; [26]): 47.8%
Decomposition efficiency of genistin family in roasted soy flour (Crude diglycosidase; [27]): not detected
Decomposition efficiency of genistin family in soymilk (Crude diglycosidase; [27]): 59.1%
Decomposition efficiency of genistin family in roasted soy flour (Crude diglycosidase; [28]): not detected
Decomposition efficiency of genistin family in soymilk (Crude diglycosidase; [28]): 46.9%
Decomposition efficiency of genistin family in roasted soy flour (Crude diglycosidase; [29]): not detected
Decomposition efficiency of genistin family in soymilk (Crude diglycosidase; [29]): 32.5%
Decomposition efficiency of genistin family in roasted soy flour (Crude diglycosidase; [30]): not detected
Decomposition efficiency of genistin family in soymilk (Crude diglycosidase; [30]): 20.4%
Decomposition efficiency of genistin family in roasted soy flour (Crude diglycosidase; [31]): not detected
Decomposition efficiency of genistin family in soymilk (Crude diglycosidase; [31]): 53.3%
Decomposition efficiency of genistin family in concentrated soybean protein (Crude diglycosidase; [32]): not detected
Decomposition efficiency of genistin family in defatted soybean (Crude diglycosidase; [32]): 47.0%
Decomposition efficiency of genistin family in concentrated soybean protein (Crude diglycosidase; [33]): not detected
Decomposition efficiency of genistin family in defatted soybean (Crude diglycosidase; [33]): 48.9%
Decomposition efficiency of genistin family in concentrated soybean protein (Crude diglycosidase; [34]): not detected
Decomposition efficiency of genistin family in defatted soybean (Crude diglycosidase; [34]): 45.2%
Decomposition efficiency of genistin family in concentrated soybean protein (Crude diglycosidase; [35]): not detected
Decomposition efficiency of genistin family in defatted soybean (Crude diglycosidase; [35]): 41.1%
Decomposition efficiency of genistin family in concentrated soybean protein (Crude diglycosidase; [36]): not detected
Decomposition efficiency of genistin family in defatted soybean (Crude diglycosidase; [36]): 39.7%
Decomposition efficiency of genistin family in roasted soy flour (Crude diglycosidase; [37]): not detected
Decomposition efficiency of genistin family in soymilk (Crude diglycosidase; [37]): 58.5%
Decomposition efficiency of genistin family in roasted soy flour (Crude diglycosidase; [38]): not detected
Decomposition efficiency of genistin family in soymilk (Crude diglycosidase; [38]): 48.9%
Decomposition efficiency of genistin family in roasted soy flour (Crude diglycosidase; [39]): not detected
Decomposition efficiency of genistin family in soymilk (Crude diglycosidase; [39]): 40.6%
Decomposition efficiency of genistin family in roasted soy flour (Crude diglycosidase; [40]): not detected
Decomposition efficiency of genistin family in soymilk (Crude diglycosidase; [40]): 31.8%
Decomposition efficiency of genistin family in roasted soy flour (Crude diglycosidase; [41]): not detected
Decomposition efficiency of genistin family in soymilk (Crude diglycosidase; [41]): 44.6%
Decomposition efficiency of genistin family in concentrated soybean protein (Crude diglycosidase; [42]): not detected
Decomposition efficiency of genistin family in defatted soybean (Crude diglycosidase; [42]): 47.0%
Decomposition efficiency of genistin family in concentrated soybean protein (Crude diglycosidase; [43]): not detected
Decomposition efficiency of genistin family in defatted soybean (Crude diglycosidase; [43]): 43.8%
Decomposition efficiency of genistin family in concentrated soybean protein (Crude diglycosidase; [44]): not detected
Decomposition efficiency of genistin family in defatted soybean (Crude diglycosidase; [44]): 32.5%
Decomposition efficiency of genistin family in concentrated soybean protein (Crude diglycosidase; [45]): not detected
Decomposition efficiency of genistin family in defatted soybean (Crude diglycosidase; [45]): 20.9%
Decomposition efficiency of genistin family in concentrated soybean protein (Crude diglycosidase; [46]): not detected
Decomposition efficiency of genistin family in defatted soybean (Crude diglycosidase; [46]): 20.1%
Decomposition efficiency of genistin family in roasted soy flour (Crude diglycosidase; [47]): not detected
Decomposition efficiency of genistin family in soymilk (Crude diglycosidase; [47]): 57.8%
Decomposition efficiency of genistin family in roasted soy flour (Crude diglycosidase; [48]): not detected
Decomposition efficiency of genistin family in soymilk (Crude diglycosidase; [48]): 50.4%
Decomposition efficiency of genistin family in roasted soy flour (Crude diglycosidase; [49]): not detected
Decomposition efficiency of genistin family in soymilk (Crude diglycosidase; [49]): 37.7%
Decomposition efficiency of genistin family in roasted soy flour (Crude diglycosidase; [50]): not detected
Decomposition efficiency of genistin family in soymilk (Crude diglycosidase; [50]): 24.1%
Decomposition efficiency of genistin family in roasted soy flour (Crude diglycosidase; [51]): not detected
Decomposition efficiency of genistin family in soymilk (Crude diglycosidase; [51]): 22.9%
aglycon ([1]; Reaction time 0 h): 0
glucoside ([1]; Reaction time 0 h): 100
aglycon ([1]; Reaction time 1 h): 74.2
glucoside ([1]; Reaction time 1 h): 25.8
aglycon ([1]; Reaction time 3 h): 82.1
glucoside ([1]; Reaction time 3 h): 17.9
aglycon ([1]; Reaction time 6 h): 82.3
glucoside ([1]; Reaction time 6 h): 17.7
Structure (SMILES): O=C(O)CC(=O)OC[C@H]1O[C@@H](Oc2cc(O)c3c(=O)c(-c4ccc(O)cc4)coc3c2)[C@H](O)[C@@H](O)[C@@H]1O [malonylgenistin, 6″-O-malonylgenistin]
